Measurements taken from patent US20090011405A1 (priority 2003, published 2009).

Experiments:
[1] = test system: JUN1 and JUNZ (c-Jun self dimerization); test: Reverse two-hybrid assay with JUN1 and JUNZ, background and plating efficiency; assay type: cell-based, yeast
Method: A reverse two-hybrid assay was performed using the interacting proteins JUN1 (amino acids 187-334, inclusive, of the JUN protein) and JUNZ (amino acids 259-309, inclusive, of the JUN protein) both of which comprise the leucine zipper domain of c-Jun (ie the region necessary for self dimerization). As a positive control FOSZ (amino acids 111-195, inclusive, of the FOS protein), a known blocker of c-Jun self dimerization was used. As a negative control, the expression vector alone was used. Gene constructs were transformed into cells comprising the negative selectable markers URA3 and CYH2.
Cells comprising only the interacting partners or the interacting partners and FOSZ (19F) or the interacting partners and the negative control (19) were grown in various concentrations of uracil (from 10 mg/L to 0 mg/L). All cells were also plated in the presence of 0.02% galactose; 0.04% FOA; and 5 μg/ml cycloheximide.
Background was determined by estimating the number of cells (colonies) that expressed only JUN1 and JUNZ and were still capable of growing in the presence of 5-FOA. Plating efficiency was determined by estimating the number of cells out of the 500 plated that expressed JUN1, JUNZ and FOSZ that were capable of growing in each set of conditions.
Using the same expression constructs and cells as in Example 2 cells were plated in the presence of increasing concentrations of 5-FOA and uracil. […]

[2] = target: JUN1 (amino acids 187-334, inclusive, of the JUN protein); test: cell-based or functional assay
[3] = target: JUNZ (amino acids 259-309, inclusive, of the JUN protein); test: cell-based or functional assay

Molecule: C[C@@H]1C[C@@H]([C@H](O)CC2CC(=O)NC(=O)C2)C(=O)[C@@H](C)C1 [cycloheximide]
- background (effect of increasing cycloheximide concentration) ([1]; JUN1/JUNZ cells, 0.2 or 0.5 mg/L uracil, 0.06% 5-FOA, 10000 or 100000 cells plated): lower levels of background

Molecule: O=c1cc[nH]c(=O)[nH]1 [uracil]
- background (effect of increased uracil concentration) ([1]; JUN1/JUNZ cells, uracil 10 to 0 mg/L, 0.02% galactose, 0.04% FOA, 5 μg/ml cycloheximide): increased background
- plating efficiency (effect of increased uracil concentration) ([1]; JUN1/JUNZ/FOSZ cells, uracil 10 to 0 mg/L, 0.02% galactose, 0.04% FOA, 5 μg/ml cycloheximide): reduced plating efficiency
- background ([1]; cells expressing only JUN1 and JUNZ, 0.25 and 0.5 mg/L uracil, 0.02% galactose, 0.04% FOA, 5 μg/ml cycloheximide): 0%

Molecule: FOSZ (amino acids 111-195, inclusive, of the FOS protein) (from UniProt P01100 111-195)
- plating efficiency (cells expressing JUN1, JUNZ and FOSZ that grow under counter-selection) [2]: > 40%
- plating efficiency (cells expressing JUN1, JUNZ and FOSZ that grow under counter-selection) [3]: > 40%

Molecule: JUN1 (amino acids 187-334, inclusive, of the JUN protein)
- background (colonies expressing only JUN1 and JUNZ that still grow in the presence of 5-FOA) [3]: 0%

B1: FOSZ: amino acids 111-195, inclusive, of the FOS protein, a known blocker of c-Jun self dimerization (protein)
chain: VVKTMTGGRAQSIGRRGKVEQLSPEEEEKRRIRRERNKMAAAKCRNRRRELTDTLQAETDQLEDEKSALQTEIANLLKEKEKLEF
- plating efficiency ([1]; cells expressing JUN1, JUNZ and FOSZ (19F), 500 plated, low concentrations of uracil, 0.02% galactose, 0.04% FOA, 5 μg/ml cycloheximide): greater than 40%
